Data on one substance can be found in patent US5767269A, “Processes for the preparation of low-affinity, low molecular weight heparins useful as antithrombotics” (Hamilton Civic Hospitals Research Development Inc., priority 1996, dated 1998).

One test relates to surface-bound thrombin. Nature of the test: Extracorporeal recirculation circuit: clotting of the filter in recalcified human whole blood. To be noted: concentrations which prolong the thrombin clotting time to over 500 seconds (10 to 20 U/ml). Here is the method:
The circuit consists of Tygon tubing (3/16"×1/16") connected to a 40 micron transfusion filter (Pall SQ40S). The system includes 3-way stopcocks for blood sampling. A surgical pressure transducer connected to a pressure recorder (Hewlett-Packard) is connected in line with the filter so that clotting of the filter causes a steady increase in pressure. Citrated whole blood taken from normal, healthy volunteers is used. The circuit is filled with 50 ml of whole blood placed in a reservoir and kept in a waterbath maintained at 37° C. The anticoagulant to be tested is added to the circuit, clotting is initiated by recalcification (0.8 ml of 1.0M CaCl2), and the blood is recirculated at a constant flow rate through the thrombogenic surface using a roller head pump (Cole-Parmer MFLX modular drive with a large F/6 roll head cartridge). Thrombosis of the filter is monitored by a change in pressure in a gauge inserted into the circuit, proximal to the filter. […]
The inactivation of surface-bound thrombin and fluid-phase thrombin can be measured simultaneously using this system. More particularly, inactivation of surface-bound thrombin is quantified by recording the delay in clotting of the circuit. […] Inactivation of fluid phase thrombin is quantified by recording the thrombin clotting time of plasma prepared from blood removed from the circuit just before recalcification.

The test system of a further test is fluid-phase thrombin. In words: Thrombin clotting time of plasma from blood of the extracorporeal circuit. The format is biochemical, human. From the text:
The inactivation of surface-bound thrombin and fluid-phase thrombin can be measured simultaneously using this system. More particularly, inactivation of surface-bound thrombin is quantified by recording the delay in clotting of the circuit. This delay is contributed to, albeit to a lesser extent, by the inactivating effect of the anticoagulant on fluid phase thrombin, whose generation is potentiated by the clot-bound thrombin. Inactivation of fluid phase thrombin is quantified by recording the thrombin clotting time of plasma prepared from blood removed from the circuit just before recalcification.

On to Hirudin, for which, in the test with surface-bound thrombin, the “prevention of thrombosis in the circuit compared with LA-LMWH” value is given as “much less effective at preventing thrombosis in the circuit”. Besides, the TCT in the test with fluid-phase thrombin (10 U/mL (Table 3)) and with fluid-phase thrombin (20 U/ml (Table 3)) was over 500 s throughout.
